Source: patent publication US9440962B2, “Benzisoxazoles” (Hoffmann-La Roche Inc., priority 2012, dated 2016)

Columns and labels:
[1] = test system: human embryonic stem cell derived neural stem cells (NSCs); assay: Neural stem cell proliferation assay (neurogenesis assay, ATP levels by CellTiterGlo); type: cell-based; details: 96 h, compound concentration at which 150% activity of control (100%) is reached, ATP levels after 4 days incubation, dose response 8 μM to 8 nM
Method: Neural Stem Cell Proliferation Assay
Neurogenic properties of small molecules are determined based on the proliferation of human embryonic stem cell derived neural stem cells (NSCs) which were derived via a dual smad inhibition as previously described (Chambers, S. M., et al., Highly efficient neural conversion of human ES and iPS cells by dual inhibition of SMAD signaling, Nature biotechnology, 2009. 27(3): p. 275-80.)
Compounds respond is measured by the increase in cells based on ATP levels (Promega:CellTiterGlo®) after an incubation period of 4 days.
NSCs are thawed and expanded over 3 passages. On the 14th day, NSCs are seeded in Polyornithin/Laminin coated 384 well plates at a cell density of 21′000 cells/cm^2 in a media volume of 38 μl.
4 hours after cell seeding, compound solutions are added at a volume of 2 μl. Stock solutions of the compounds (water, 5% DMSO) are diluted to obtain a dose response (11 points, dilution factor is 2), ranging from 8 μM to 8 nM. Controls are run to consistently determine the neurogenic properties of the cells: • Negative (neutral) control is cell culture Media (final DMSO concentration: 0.25%). Positive controls are: • 1. cell culture Media+100 ng/ml FGF2 (final DMSO concentration: 0.1%) • 2. cell culture Media+20 ng/ml EGF (final DMSO concentration: 0.1%) • 3. cell culture Media+100 ng/ml Wnt3a (final DMSO concentration: 0.1%)
After 4 days incubation at 37° C., 5% CO2, the amount of ATP per well is quantified. The ATP concentration is proportional to the cell number. ATP is quantified by using the Promega CellTiterGlo® kit. The CellTiterGlo® reagents contain a cell lysis buffer, a thermo stable luciferase (UltraGlo™ recombinant luciferase), magnesium and luciferin. Luciferin reacts with ATP producing oxyluciferin, AMP and light. The luminescence signal is proportional to the ATP content.
The value of negative (neutral) control is determined for each assay plate by taking the average of 16 negative control wells. The neurogenic compound response is calculated for each compound as (compound/Negative Control)* 100.
The values of EC150 from the dose response curve are determined for each test compound. The EC150 is the compound concentration at which 150% activity of control (100%) is reached.

What does the source list for Fc1ccc(-n2nccc2-c2ccc3noc(-c4cccc(F)c4)c3c2)cc1 [Example 10, 3-(3-Fluoro-phenyl)-5-[2-(4-fluoro-phenyl)-2H-pyrazol-3-yl]-benzo[c]isoxazole]?
EC (150% of control) [1]: 0.56 µM; melting point: 176 °C

With COc1ccc(-n2nccc2-c2ccc3noc(-c4ccc(F)cc4)c3c2)cc1 [Example 20, 3-(4-Fluoro-phenyl)-5-[2-(4-methoxy-phenyl)-2H-pyrazol-3-yl]-benzo[c]isoxazole] as the molecule, how does the EC (150% of control) [1] read?
The EC (150% of control) was 0.36 µM.

What about the melting point of the same molecule?
Its melting point is 179 °C.

What does the source list for COc1ccc(-c2onc3ccc(-c4ccnn4-c4ccccc4F)cc23)cc1 [Example 6, 5-[2-(2-Fluoro-phenyl)-2H-pyrazol-3-yl]-3-(4-methoxy-phenyl)-benzo[c]isoxazole]?
EC (150% of control) [1]: 0.073 µM; melting point: 134 °C

Which EC (150% of control) [1] does the source give for Fc1ccc(-n2nccc2-c2ccc3noc(-c4ccc(Cl)cc4)c3c2)c(F)c1 [Example 32, 3-(4-Chloro-phenyl)-5-[2-(2,4-difluoro-phenyl)-2H-pyrazol-3-yl]-benzo[c]isoxazole] here?
Its EC (150% of control) is 0.073 µM.

What about the melting point of the same molecule?
Its melting point is 155 °C.

With Fc1ccccc1-n1nccc1-c1ccc2noc(-c3ccc(C(F)(F)F)cc3)c2c1 [Example 4, 5-[2-(2-Fluoro-phenyl)-2H-pyrazol-3-yl]-3-(4-trifluoromethyl-phenyl)-benzo[c]isoxazole] as the molecule, how does the EC (150% of control) [1] read?
Its EC (150% of control) is 0.92 µM.

And the melting point?
Its melting point is 156 °C.

With Cc1ccc(-n2nccc2-c2ccc3noc(-c4ccc(F)c(F)c4)c3c2)cc1 [Example 38, 3-(3,4-Difluoro-phenyl)-5-(2-p-tolyl-2H-pyrazol-3-yl)-benzo[c]isoxazole] as the molecule, how does the EC (150% of control) [1] read?
The EC (150% of control) was 0.48 µM.

And the melting point?
The melting point was 198 °C.

What does the source list for c1ccc(-c2onc3ccc(-c4ccnn4-c4ccccc4)cc23)cc1 [Example 34, 3-Phenyl-5-(2-phenyl-2H-pyrazol-3-yl)-benzo[c]isoxazole]?
EC (150% of control) [1]: 0.13 µM; melting point: 163 °C

With Fc1cccc(-c2onc3ccc(-c4ccnn4-c4ccc(F)cc4F)cc23)c1 [Example 29, 5-[2-(2,4-Difluoro-phenyl)-2H-pyrazol-3-yl]-3-(3-fluoro-phenyl)-benzo[c]isoxazole] as the molecule, how does the EC (150% of control) [1] read?
The EC (150% of control) was 0.25 µM.

And the melting point?
The melting point was 165 °C.

Which EC (150% of control) [1] does the source give for Fc1cccc(-c2onc3ccc(-c4ccnn4-c4ccccc4F)cc23)c1 [Example 2, 3-(3-Fluoro-phenyl)-5-[2-(2-fluoro-phenyl)-2H-pyrazol-3-yl]-benzo[c]isoxazole] here?
The EC (150% of control) was 0.29 µM.

What about the melting point of the same molecule?
The melting point was 186 °C.

What does the source list for Fc1ccc(-c2onc3ccc(-c4ccnn4-c4ccccc4Cl)cc23)cc1 [Example 41, 5-[2-(2-Chloro-phenyl)-2H-pyrazol-3-yl]-3-(4-fluoro-phenyl)-benzo[c]isoxazole]?
EC (150% of control) [1]: 0.22 µM; melting point: 161 °C

For COc1ccc(-c2onc3ccc(-c4ccnn4-c4ccc(F)cc4F)cc23)cc1 [Example 33, 5-[2-(2,4-Difluoro-phenyl)-2H-pyrazol-3-yl]-3-(4-methoxy-phenyl)-benzo[c]isoxazole], which EC (150% of control) [1] is on record?
The EC (150% of control) was 0.068 µM.

And the melting point?
Its melting point is 165 °C.

Which EC (150% of control) [1] does the source give for Fc1ccc(-n2nccc2-c2ccc3noc(-c4cccs4)c3c2)cc1 [Example 44, 5-[2-(4-Fluoro-phenyl)-2H-pyrazol-3-yl]-3-thiophen-2-yl-benzo[c]isoxazole] here?
Its EC (150% of control) is 0.17 µM.

What about the melting point of the same molecule?
Its melting point is 154 °C.

Which EC (150% of control) [1] does the source give for Fc1ccc(-c2onc3ccc(-c4ccnn4-c4ccc(Cl)cc4)cc23)cc1 [Example 25, 5-[2-(4-Chloro-phenyl)-2H-pyrazol-3-yl]-3-(4-fluoro-phenyl)-benzo[c]isoxazole] here?
Its EC (150% of control) is 0.32 µM.

What about the melting point of the same molecule?
The melting point was 154 °C.

What does the source list for Fc1ccc(-c2onc3ccc(-c4ccnn4-c4ccc(F)cc4)cc23)cc1 [Example 8, 3-(4-Fluoro-phenyl)-5-[2-(4-fluoro-phenyl)-2H-pyrazol-3-yl]-benzo[c]isoxazole]?
EC (150% of control) [1]: 0.25 µM; melting point: 159 °C

For Fc1cccc(-c2onc3ccc(-c4ccnn4-c4ccc(Cl)cc4)cc23)c1 [Example 26, 5-[2-(4-Chloro-phenyl)-2H-pyrazol-3-yl]-3-(3-fluoro-phenyl)-benzo[c]isoxazole], which EC (150% of control) [1] is on record?
The EC (150% of control) was 1.3 µM.

And the melting point?
Its melting point is 184 °C.

With Cc1ccc(-n2nccc2-c2ccc3noc(-c4cccc(F)c4)c3c2)cc1 [Example 15, 3-(3-Fluoro-phenyl)-5-(2-p-tolyl-2H-pyrazol-3-yl)-benzo[c]isoxazole] as the molecule, how does the EC (150% of control) [1] read?
Its EC (150% of control) is 0.14 µM.

And the melting point?
Its melting point is 207 °C.

What does the source list for Fc1ccc(-c2onc3ccc(-c4ccnn4-c4cccc(F)c4)cc23)cc1 [Example 9, 3-(4-Fluoro-phenyl)-5-[2-(3-fluoro-phenyl)-2H-pyrazol-3-yl]-benzo[c]isoxazole]?
EC (150% of control) [1]: 2.8 µM; melting point: 175 °C
